Columns and labels:
[1] = system: Plasmodium falciparum; test: Antimalarial activity against Plasmodium falciparum 3D7 infected in ARh+ human erythrocytes at 1 uM after 42 to 48 hrs by Picogreen staining-based 96 well microplate assay; assay type: functional; details: read-out: GI
[2] = system: Plasmodium falciparum; test: Antimalarial activity against Plasmodium falciparum 3D7 infected in ARh+ human erythrocytes at 0.01 uM after 42 to 48 hrs by Picogreen staining-based 96 well microplate assay; assay type: functional; details: read-out: GI
[3] = system: Plasmodium falciparum; test: Antimalarial activity against Plasmodium falciparum 3D7 infected in ARh+ human erythrocytes at 0.1 uM after 42 to 48 hrs by Picogreen staining-based 96 well microplate assay; assay type: functional; details: read-out: GI
[4] = system: Plasmodium falciparum; test: Antimalarial activity against Plasmodium falciparum 3D7 infected in ARh+ human erythrocytes after 42 to 48 hrs by Picogreen staining-based 96 well microplate assay; assay type: functional, organism-based
[5] = system: Plasmodium falciparum; test: Antimalarial activity against Plasmodium falciparum 3D7 infected in ARh+ human erythrocytes at 10 uM after 42 to 48 hrs by Picogreen staining-based 96 well microplate assay; assay type: functional; details: read-out: GI
[6] = system: hERG (KCNH2); test: Selectivity index, ratio of IC50 for inhibition of human ERG expressed in Xenopus laevis oocytes to IC50 for Plasmodium falciparum 3D7; assay type: toxicity, cell-based; details: read-out: Ratio IC50
[7] = biological target: Voltage-gated inwardly rectifying potassium channel KCNH2 (Homo sapiens, UniProt Q12809); test: Inhibition of human ERG expressed in Xenopus laevis oocytes by two-electrode voltage clamp assay; assay type: cell-based
Voltage-gated inwardly rectifying potassium channel KCNH2, sequence (Q12809 whole entry): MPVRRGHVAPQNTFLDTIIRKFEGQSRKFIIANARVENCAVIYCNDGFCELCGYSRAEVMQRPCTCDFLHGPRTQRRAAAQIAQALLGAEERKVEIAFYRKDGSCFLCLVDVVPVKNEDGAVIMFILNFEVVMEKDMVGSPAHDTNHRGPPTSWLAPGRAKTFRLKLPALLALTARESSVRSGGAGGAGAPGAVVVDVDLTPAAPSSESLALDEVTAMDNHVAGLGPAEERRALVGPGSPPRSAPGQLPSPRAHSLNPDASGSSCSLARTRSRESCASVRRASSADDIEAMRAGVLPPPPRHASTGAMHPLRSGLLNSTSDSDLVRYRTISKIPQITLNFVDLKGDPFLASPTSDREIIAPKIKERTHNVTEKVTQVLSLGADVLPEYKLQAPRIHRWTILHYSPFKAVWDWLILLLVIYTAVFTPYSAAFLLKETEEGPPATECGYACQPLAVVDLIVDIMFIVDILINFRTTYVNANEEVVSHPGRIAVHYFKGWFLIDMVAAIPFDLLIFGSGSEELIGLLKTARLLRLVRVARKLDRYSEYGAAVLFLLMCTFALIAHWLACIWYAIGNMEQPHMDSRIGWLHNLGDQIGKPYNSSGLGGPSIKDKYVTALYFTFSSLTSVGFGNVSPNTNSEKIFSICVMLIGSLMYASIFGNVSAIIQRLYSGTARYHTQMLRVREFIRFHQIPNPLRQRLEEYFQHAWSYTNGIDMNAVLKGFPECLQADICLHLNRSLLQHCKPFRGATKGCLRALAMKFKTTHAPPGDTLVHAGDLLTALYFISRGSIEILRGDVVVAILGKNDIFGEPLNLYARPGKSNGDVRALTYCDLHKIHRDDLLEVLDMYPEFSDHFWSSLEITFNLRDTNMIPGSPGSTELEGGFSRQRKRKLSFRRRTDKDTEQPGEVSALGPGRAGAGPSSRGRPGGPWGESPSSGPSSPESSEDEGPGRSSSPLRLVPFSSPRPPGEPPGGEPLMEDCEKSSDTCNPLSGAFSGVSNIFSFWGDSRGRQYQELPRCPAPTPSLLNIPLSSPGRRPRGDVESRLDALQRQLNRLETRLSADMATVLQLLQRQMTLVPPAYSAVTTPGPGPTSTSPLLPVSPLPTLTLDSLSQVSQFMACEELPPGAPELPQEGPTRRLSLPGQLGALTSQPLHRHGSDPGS

Structure (SMILES)	inhibition of growth at 1 µM [1]	inhibition of growth at 0.01 µM [2]	inhibition of growth at 0.1 µM [3]	IC50 [4]	inhibition of growth at 10 µM [5]	selectivity ratio [6]	IC50 [7]
O=C(Nc1ccc2c(c1)CCC2)N1CCC(Nc2nc3ccccc3n2Cc2ccc(F)cc2)CC1	5%	1%	2%	6280 nM	66%	–	–
COc1ccc(CCN2CCN(Cc3nc4ccccc4n3Cc3ccc(F)cc3)CC2)cc1	12%	3%	0%	4640 nM	72%	–	–
Cc1ccc(S(=O)(=O)N2CCC(Nc3nc4ccccc4n3Cc3ccc(F)cc3)CC2)cc1	10%	8%	7%	8290 nM	55%	–	–
Fc1ccc(Cn2c(NC3CCN(C/C=C/c4ccccc4)CC3)nc3ccccc32)cc1	55%	1%	12%	718 nM	100%	–	–
COc1ccc(CCN2CCC(Nc3nc4ccccc4n3CCC(C)C)CC2)cc1	100%	0%	54%	28 to 92 nM	97%	7.6	212 nM
COCn1c(NC2CCN(CCc3ccc(OC)cc3)CC2)nc2ccccc21	5%	0%	0%	6740 nM	64%	–	–
COc1ccc(CCN2CCC(Nc3nc4ccccc4n3Cc3ccc(F)cc3)C2)cc1 (stereo unspecified)	14%	0%	0%	5320 nM	67%	–	–
O=S(=O)(c1ccc(Cl)cc1)N1CCC(Nc2nc3ccccc3n2Cc2ccc(F)cc2)CC1	6%	4%	1%	3960 nM	83%	–	–
CN1CCC(Nc2nc3ccccc3n2Cc2ccc(F)cc2)CC1	2%	0%	0%	3090 nM	100%	–	–
COc1ccc(NC(=O)N2CCC(Nc3nc4ccccc4n3Cc3ccc(F)cc3)CC2)c(OC)c1	5%	0%	1%	8140 nM	57%	–	–
Fc1ccc(Cn2c(NC3CCN(CCCc4ccccc4)CC3)nc3ccccc32)cc1	78%	2%	37%	196 nM	100%	–	–
O=C(Nc1ccccc1)N1CCC(Nc2nc3ccccc3n2Cc2ccc(F)cc2)CC1	7%	0%	3%	> 10000 nM	35%	–	–
COc1ccc(CCN2CCC(Nc3nc4ccccc4n3Cc3ccc(F)cc3F)CC2)cc1	100%	0%	55%	85 to 102 nM	80%	1.7	178 nM
Fc1ccc(Cn2c(NC3CCN(CC4CC4)CC3)nc3ccccc32)cc1	21%	0%	0%	2240 nM	98%	–	–
O=C(c1ccc(Cl)cc1)N1CCC(Nc2nc3ccccc3n2Cc2ccc(F)cc2)CC1	5%	4%	3%	> 10000 nM	36%	–	–
O=C(NCCc1ccccc1)N1CCC(Nc2nc3ccccc3n2Cc2ccc(F)cc2)CC1	15%	8%	1%	> 10000 nM	49%	–	–
COc1ccc(CCN2CCN(c3nc4ccccc4n3Cc3ccc(F)cc3)CC2)cc1	21%	0%	0%	6530 nM	57%	–	–
Fc1ccc(Cn2c(NC3CCN(CCc4ccccc4)CC3)nc3ccccc32)cc1	90%	9%	43%	125 nM	100%	–	–
O=C(NCc1ccccc1)N1CCC(Nc2nc3ccccc3n2Cc2ccc(F)cc2)CC1	4%	0%	0%	> 10000 nM	25%	–	–

Structure (SMILES)	inhibition of growth at 1 µM [1]	inhibition of growth at 0.01 µM [2]	inhibition of growth at 0.1 µM [3]	IC50 [4]	inhibition of growth at 10 µM [5]	selectivity ratio [6]	IC50 [7]
Fc1ccc(Cn2c(NC3CCNCC3)nc3ccccc32)cc1 [TECASTEMIZOLE]	17%	5%	0%	2300 nM	100%	–	–
O=C(Nc1ccc(F)cc1F)N1CCC(Nc2nc3ccccc3n2Cc2ccc(F)cc2)CC1	4%	2%	0%	> 10000 nM	39%	–	–
COc1ccc(CCN2CCC(Nc3nc4ccccc4n3CC3CCCCC3)CC2)cc1	100%	1%	80%	39.4 to 44 nM	100%	0.1	3.27 nM
CC(C)(C)NC(=O)N1CCC(Nc2nc3ccccc3n2Cc2ccc(F)cc2)CC1	6%	0%	2%	> 10000 nM	43%	–	–
O=C(N1CCOCC1)N1CCC(Nc2nc3ccccc3n2Cc2ccc(F)cc2)CC1	0%	0%	0%	> 10000 nM	26%	–	–
COc1ccc(OC)c(S(=O)(=O)N2CCC(Nc3nc4ccccc4n3Cc3ccc(F)cc3)CC2)c1	8%	5%	4%	6850 nM	61%	–	–
COc1ccc(CCN2CCC(Nc3nc4ccccc4n3Cc3ccccc3)CC2)cc1	82%	0%	14%	344 nM	100%	–	–
COc1ccc(CCN2CCC(Nc3nc4ccccc4n3Cc3ccc(Br)cc3)CC2)cc1	100%	0%	47%	111 nM	97%	–	–
O=C(c1ccc(F)cc1)N1CCC(Nc2nc3ccccc3n2Cc2ccc(F)cc2)CC1	6%	0%	0%	10000 nM	51%	–	–
CCCCCCn1c(NC2CCN(CCc3ccc(OC)cc3)CC2)nc2ccccc21	100%	6%	95%	29 to 30 nM	100%	–	–
O=C(c1ccc(C(F)(F)F)cc1)N1CCC(Nc2nc3ccccc3n2Cc2ccc(F)cc2)CC1	6%	3%	0%	6180 nM	66%	–	–
CC(C)S(=O)(=O)N1CCC(Nc2nc3ccccc3n2Cc2ccc(F)cc2)CC1	1%	2%	3%	> 10000 nM	11%	–	–
CC(C)CN1CCC(Nc2nc3ccccc3n2Cc2ccc(F)cc2)CC1	60%	0%	0%	829 nM	90%	–	–
COc1ccc(CCN2CCC(Nc3nc4ccccc4n3Cc3ccc(F)cc3)CC2)cc1 [ASTEMIZOLE]	91%	0%	37%	162 to 171 nM	99%	–	–
Fc1ccc(Cn2c(NC3CCN(Cc4ccccc4)CC3)nc3ccccc32)cc1	29%	2%	2%	1900 nM	94%	–	–
Fc1ccc(Cn2c(NC3CCN(CC4CCCCC4)CC3)nc3ccccc32)cc1	48%	0%	14%	857 nM	100%	–	–
CCC(CC)Cn1c(NC2CCN(CCc3ccc(OC)cc3)CC2)nc2ccccc21	100%	0%	16%	240 nM	95%	–	–
O=C(c1ccccc1)N1CCC(Nc2nc3ccccc3n2Cc2ccc(F)cc2)CC1	8%	5%	0%	> 10000 nM	18%	–	–
CCCn1c(NC2CCN(CCc3ccc(OC)cc3)CC2)nc2ccccc21	82%	0%	3%	416 nM	100%	–	–

From ChEMBL document CHEMBL4177615 (Bioorg Med Chem, 2017)
